What was measured:
BoyJ recipient mice [1] = test: Short-term homing of donor Sca-1+lin- cells to recipient bone marrow; format: in vivo, mouse
Procedure: Control C57BL/6 (CD45.2^+), CD26 inhibitor treated C57BL/6 (CD45.2^+), or CD26^−/− (CD45.2^+) sorted Sca-1^+lin^− or LD donor BM cells were transplanted by tail-vein injection into lethally irradiated (1100 cGy split dose) congenic BoyJ (CD45.1^+) female recipient mice (Haneline L S, et al. Blood. 1999; 94:1-8.) Contribution of Sca^+lin^− donor cells in the context of Sca-1^+lin^− recipient cells was calculated by flow cytometric analysis of cells found in the recipient mouse BM by measuring CD45.1+ and CD45.2^+ on Sca-1^+lin^− LD cells isolated from the recipient mice 24 hours post transplant. […] Comparisons between treatment groups were made using a two-tailed Student's t-test and data was plotted as mean (M)±standard error of the mean (SEM).

C57BL/6 mice [2] = test: G-CSF induced mobilization of HSC/HPC in C57BL/6 mice (progenitor cell assays of peripheral blood); format: in vivo, mouse; conditions: for effect of scrambled peptides on mobilization: C57BL/6, data not shown
Procedure: (§1) Mobilization was achieved by treating mice with 2.5 μg (micrograms) G-CSF/mouse 2×/day s.c. for 2 days (Broxmeyer H E, et al. J Exp Med. 1999; 189:1987-1992). Mice simultaneously treated with a specific CD26 inhibitor also underwent treatment with either 5 μmol Diprotin A/mouse 2×/day s.c. for 2 days or 5 μmol Val-Pyr/mouse 2×/day s.c. for 2 days. Diprotin A was obtained commercially (Peptides International, Louisville, Ky.) and Val-Pyr was obtained as a gift from Nicolai Wagtmann (Novo Nordisk, Denmark). After either G-CSF or G-CSF plus CD26 inhibitor treatment peripheral blood cells were collected and total cellular nuclearity was measured and progenitor cell assays were performed using total peripheral blood cells.
(§2) One-hundred thousand mouse G-CSF mobilized peripheral blood cells were plated in triplicate for colony formation by CFU-GM, BFU-E, and CFU-GEMM and scored at 7 days incubation as previously described (Cooper S, Broxmeyer H E. Measurement of interleukin-3 and other hematopoietic growth factors, such as GM-CSF, G-CSF, M-CSF, erkythropoietin and the potent co-stimulating cytokines steel factor and FLt-3 ligand. In: Coligan J E K A, Margulies D H, Shevach E M, Strober E, Coico R, ed. Current protocols in immunology. New York: John Wiley & Sons; 1996:6.4.1-6.4.12). Cells were plated for colony formation in 1% methylcellulose culture medium containing 30% FBS, 1 U/ml recombinant(r) human Epo, 0.1 mM Hemin, 5% Pokeweed Mitogen Spleen Conditioned Media (PWMSCM), and 50 ng/ml rmouse Steel Factor (=Stem Cell Factor, SCF).

BoyJ recipient mice [3] = test: Non-competitive long-term engraftment; format: in vivo, mouse; conditions: six months post transplant, P<0.05, n=5
Procedure: Control C57BL/6 (CD45.2^+) or CD26 inhibitor treated C57BL/6 (CD45.2^+) LD donor BM cells were transplanted by tail-vein injection into lethally irradiated (1100 cGy split dose) congenic BoyJ (CD45.1^+) female recipient mice (Haneline L S, et al. Blood. 1999; 94:1-8). Contribution of donor cells was obtained by measuring the number of donor and residual recipient lymphocytes in the peripheral blood. The % donor contribution was calculated by flow cytometric analysis of peripheral blood lymphocytes found in the recipient mouse peripheral blood by measuring CD45.1^+ and CD45.2^+ on cells isolated from the recipient mice 1-6 months post transplant. No less than five mice from each recipient group were analyzed, each one having received a transplant of 5×10^5 pooled LD donor BM cells. Comparisons between treatment groups were made using a two-tailed Student's t-test and data was plotted as mean (M)±standard error of the mean (SEM).

DBA/2 mice [4] = test: G-CSF induced mobilization of HSC/HPC in DBA/2 mice (progenitor cell assays of peripheral blood); format: in vivo, mouse; conditions: without G-CSF
BoyJ irradiated mice = test: Competitive repopulation assay; format: in vivo, mouse; conditions: six months post transplant, 5×10^5 or 2.5×10^5 donor cells vs 5×10^5 competitor BoyJ cells
Source text: Donor LDBM cells (5×10^5) from representative mice from each test group were transplanted into lethally irradiated BoyJ mice (expressing CD45.1) Quantitative contribution to chimerism was obtained 2-6 months post-transplantation in the same manner described for long-term engraftment assays.
Eight week old female recipient mice were lethally irradiated (1100 cGy split dose) prior to transplantation as previously described (Haneline L S, et al. Blood. 1999; 94:1-8). Limiting dilutions of donor LD BM cells (5×10^5, 2.5×10^5, 1.25×10^5, and 0.625×10^5 cells) from control C57Bl/6 mice, CD26-inhibitor treated LD BM cells, or untreated LD BM cells from CD26^−/− mice (all expressing CD45.2) are co-transplanted with a constant number (5×10^5) of pooled competitive BM cells from congenic BoyJ mice (expressing CD45.1), into BoyJ irradiated mice. To determine quantitatively the relative cell contribution to chimerism of each test cell population tail-vein blood samples were obtained post-transplantation each month for three months and CD45.1 and CD45.2 was measured by flow-cytometry. Cells were divided into CD26 inhibitor (either Diprotin A or Val-Pyr) treated or untreated groups obtained from normal C57BL/6 mice and untreated cells obtained from CD26^−/− mice. […]

C57BL/6 mice [5] = test: G-CSF induced mobilization of HSC/HPC in C57BL/6 mice (progenitor cell assays of peripheral blood); format: in vivo; conditions: 5 μmol/mouse 2×/day s.c. alone, without G-CSF
DBA/2 mice [6] = test: G-CSF induced mobilization of HSC/HPC in DBA/2 mice (progenitor cell assays of peripheral blood); format: in vivo, mouse
Procedure: as §1, §2

CD26-/- mice = test: G-CSF induced mobilization of progenitors in CD26-/- mice; format: in vivo, mouse; conditions: CD26-/- mice on C57Bl/6 background
Procedure: as §1
as §2, with “Cells were plated for colony formation in 1% methylcellulose culture medium containing 30% FBS, 1 U/ml recombinant(r) human Epo, 0.1 mM Hemin, 5% Pokeweed Mitogen Spleen Conditioned Media (PWMSCM), and 50 ng/ml rmouse Steel Factor (=Stem Cell Factor, SCF).” left out

[7] = inhibitor 5 μmol/mouse 2×/day s.c. during G-CSF mobilization, C57BL/6
[8] = inhibitor treatment during G-CSF mobilization
[9] = 2.5 μg G-CSF/mouse 2×/day s.c., C57BL/6

## c1cc(CN2CCCNCCNCCCNCC2)ccc1CN1CCCNCCNCCCNCC1 [AMD3100]
BoyJ recipient mice [1]; 10×10^6 LDBM donor cells treated with AMD3100 for 15 minutes prior to transplantation
  effect on the increase in homing efficiency generated by inhibition or loss of CD26: reversed the increase in homing efficiency
BoyJ recipient mice [1]; AMD3100 treatment alone, no CD26 inhibitor
  homing efficiency compared to control LDBM cells: reduction in homing efficiency

## CC(C)[C@H](N)C(=O)N1CCCC1 [Val-Pyr, Valine-Pyrrolidide]
C57BL/6 mice [2]; [7]
  reduction in BFU-E compared to G-CSF alone: 22%
  reduction in CFU-GEMM compared to G-CSF alone: 62%
  reduction in CFU-GM compared to G-CSF alone: 55%
BoyJ recipient mice [3]
  donor cell contribution to the formation of peripheral blood leukocytes: Increased donor cell contribution
DBA/2 mice [4]
  effect on the mobilization of progenitors, inhibitor alone: little or no effect
BoyJ recipient mice [1]; donor LDBM unit treated prior to transplant, P<0.01, n=6
  short-term homing of donor cells: significant increase in short-term homing
BoyJ irradiated mice
  donor contribution to chimerism: increased donor contribution to chimerism
C57BL/6 mice [5]
  effect on the mobilization of progenitors, inhibitor alone: little or no effect
DBA/2 mice [6]; [8]
  reduction in BFU-E compared to G-CSF alone: 49%
  reduction in CFU-GEMM compared to G-CSF alone: 56%
  reduction in CFU-GM compared to G-CSF alone: 52%

## Ile-Ile-Pro
C57BL/6 mice [2]
  effect of scrambled peptides on mobilization: no effect

## Pro-Ile-Ile
C57BL/6 mice [2]
  effect of scrambled peptides on mobilization: no effect

B1: G-CSF: cytokine used to induce mobilization of HSC/HPC (protein, UniProt P09919 31-207, looked up)
Granulocyte …: TPLGPASSLPQSFLLKCLEQVRKIQGDGAALQEKLVSECATYKLCHPEELVLLGHSLGIPWAPLSSCPSQALQLAGCLSQLHSGLFLYQGLLQALEGISPELGPTLDTLQLDVADFATTIWQQMEELGMAPALQPTQGAMPAFASAFQRRAGGVLVASHLQSFLEVSYRVLRHLAQP
C57BL/6 mice [2]; [9]
  BFU-E mobilized to peripheral blood: 1027±107 BFU-E/ml
  CFU-GEMM mobilized to peripheral blood: 442±35 CFU-GEMM/ml
  CFU-GM mobilized to peripheral blood: 2348±249 CFU-GM/ml
CD26-/- mice
  mobilization of progenitor cells by G-CSF: low, but significant, mobilization
DBA/2 mice [6]; 2.5 μg G-CSF/mouse 2×/day s.c.
  BFU-E mobilized to peripheral blood: 2219±141 BFU-E/ml
  CFU-GEMM mobilized to peripheral blood: 1186±163 CFU-GEMM/ml
  CFU-GM mobilized to peripheral blood: 8145±1038 CFU-GM/ml
